According to patent US20240368668A1, “SUBSTRATES AND BIOMARKERS OF ADAMTS7” (The Broad Institute, Inc., priority 2021, published 2024):
Square brackets hold non-standard residues; d marks the D form. Ends that are not written are not given here.

Each substance was assayed on mouse ADAMTS7 (assay: TMT10 TAILS N-terminomics, SMC2 experiment (process replicates, trypsin/AspN digest)). Details: SMC2_TAILS HC; log fold change of N-terminal peptide, Ad-mADAMTS7 WT over EQ.
Type: cell-based
Text: ADAMTS7 Expression, Cell Culture and Preparation of the Secreted Proteins—Full-length mouse Adamts7 1-1857 (Uniprot Q68SA9, WT or E373Q catalytic mutant) with a carboxyl terminal 3xFLAG tag was used to generate custom adenoviruses as previously described. Adeno-CMV-Luciferase (Ad-Luc) from Vector Biolabs was used as a negative control. Human Coronary Artery Smooth Muscle Cells (HCA-SMC) were obtained from Lonza and expanded in Lonza SmGM-2 media in 15 cm tissue culture plates. Twenty-four hours before media collection, near confluent plates were transduced with 50 MOI adenovirus and switched to Lonza Basal SM media with volumes of 20 ml per 15 cm plate. Expression of the Flag tagged ADAMTS7 was confirmed from the media using western blot and detected using the anti-Flag M2-HRP antibody (Sigma, A8592). Collected media was processed by adding protease inhibitors (1 mM EDTA and 1 mM PMSF) and clarified by 500 g×5 min spin at 4 C to pellet cell debris. Cell media supernatants were then passed through a 0.22 um filter and kept chilled. Processed media was then concentrated 50-100× using 3 kDa Centricon Plus-70 filter unit, spun at 3,500 g×60 min at 4 C. Approximately 10% of the processed, concentrated media was set aside for total secretome proteolytic analysis. The remaining 90% of the processed, concentrated media was buffer exchanged into 50 mM HEPES pH 8.0, 150 mM NaCl (2×50 ml) using the 3 kDa Centricon Plus-70 filter unit and concentrated to >2 mg/ml to serve as input for the TAILS experiment. Secretome and TAILS input samples were stored at −80° C.
For the first experiment, referred to as SMC1, 120 ml of media from 6×15 cm dishes was pooled from each condition (Luc, WT, EQ) and processed to produce three separate inputs for the TAILS experiment. Luc, WT and EQ inputs from the SMC1 experiment were each divided into triplicate 400 ug samples to generate technical replicate TAILS data. For the second experiment, referred to as SMC2, media was processed separately in triplicate for each condition (Luc1, Luc2, Luc3, WT1, WT2, WT3, EQ1, EQ2, EQ3) using 60 ml of media from 3×15 cm dishes for each process replicate. Inputs from the SMC2 experiment used process replicates of 300 ug each to generate TAILS data. The third experiment used input from cultured Human umbilical vein endothelial cells (HUVEC) from Lifeline Cell Technology grown in VascuLife Media and transduced in Lifeline Basal EC (+bFGF2 10 ng/ml). The HUVEC experiment used the same strategy as the SMC2 experiment, with 40 ml of media from 2×15 cm dishes for each process replicate and used 200 ug each to generate TAILS data. Inputs for process replicate experiments were restricted to the lowest concentration from the 9 parallel samples for SMC2 or HUVEC.
TMT10 isotopic labeling and negative selection of non-labeled peptides-Sample preparation was performed based on the TAILS protocol from the Overall lab with some modifications. From a single experiment, nine parallel protein samples in 50 mM HEPES pH 8.0, 150 mM NaCl were separately denatured with guanidinium chloride (Sigma, G4505) to reach a final concentration of 2.5M guanidinium chloride and 250 mM HEPES and incubated at 65° C. for 15 min. Reduction was achieved through addition of tris(2-carboxylethyl) phosphine (TCEP) at a final concentration of […] and incubated at 65° C. for 45 min. Alkylation reaction was performed with addition of iodoacetamide (IAA, Sigma, A3221) to a final concentration of 10 mM IAA for 15 min at room temperature in the dark. Following denaturation, reduction and alkylation steps, ten percent of each of the nine parallel protein samples was removed and combined to serve as a pooled reference. Isobaric tags were added to free amine groups using the TMT10plex Isobaric Mass Tagging Kit (ThermoFisher, 90113) with TMT channels randomly assigned to the nine samples and TMT 131 assigned to the pooled reference. […]
For “LTBP1_393 (LTATNFR; listed as Homo sapiens)”, the logFC.mWT.over.mEQ was 6.30. “LTBP1_540 (HQQVIPHVYPVAAKTQLGR; listed as Homo sapiens)” gave a logFC.mWT.over.mEQ of 1.77. With “LOXL1_219 (VASAGVIYPYQPR; listed as Homo sapiens)” the logFC.mWT.over.mEQ was 1.47. With “LOXL2_37 (FQQPAPEYHQPQAPANVAKIQLR; listed as Homo sapiens)” the logFC.mWT.over.mEQ was 3.30. For “LOXL2_38 ([code q]QPAPEYHQPQAPANVAKIQLR; not fully specified; listed as Homo sapiens)”, the logFC.mWT.over.mEQ was 1.68.

Same assay, conditions: SMC2_TAILS HC; log fold change, mWT over mEQ
Work on “FBLN2_260 (LGPPAPVQAKAR; listed as Homo sapiens)” yielded a logFC.mWT.over.mEQ of 2.42. With “GSN_413 (HIANVER; listed as Homo sapiens)” the logFC.mWT.over.mEQ was 1.74. Substance “HSPG2_2331 (ANLAYPAGSTQPIR; listed as Homo sapiens)” has a logFC.mWT.over.mEQ of 1.91. “FBN1_53 (LKGPNVCGSR; listed as Homo sapiens)” gave a logFC.mWT.over.mEQ of 4.89. “HSPG2_2333 (LAYPAGSTQPIR; listed as Homo sapiens)” gave a logFC.mWT.over.mEQ of 1.41. With “EFEMP1_124 (AVAGPEMQTGR; listed as Homo sapiens)” the logFC.mWT.over.mEQ was 3.27. “CCDC80_66 (LEEPNLQPLQR; listed as Homo sapiens)” showed a logFC.mWT.over.mEQ of 2.21. “FN1_1656 (SSSPVTGYR; listed as Homo sapiens)” gave a logFC.mWT.over.mEQ of 1.86. In the case of “IGFBP3_31 (SAGLGPVVR; listed as Homo sapiens)”, the logFC.mWT.over.mEQ is reported as 2.44. “LOX_124 (WFQAGYSTSR; listed as Homo sapiens)” showed a logFC.mWT.over.mEQ of 3.45. “FLNA_1285 (LTQTGGPHVKAR; listed as Homo sapiens)” gave a logFC.mWT.over.mEQ of 5.72. With “FBN1_29 (LEAGNVKETR; listed as Homo sapiens)” the logFC.mWT.over.mEQ was 3.57. Substance “FN1_40 (QSPVAVSQSKPGCYDNGKHYQINQQWER; listed as Homo sapiens)” has a logFC.mWT.over.mEQ of 2.66. “EFEMP1_125 (VAGPEMQTGR; listed as Homo sapiens)” was tested, and the logFC.mWT.over.mEQ was 2.42. For “FBLN2_259 (ALGPPAPVQAKAR; listed as Homo sapiens)”, the logFC.mWT.over.mEQ was 1.88. For “AEBP1_37 (FLEGFLSELEPEPR; listed as Homo sapiens)”, the logFC.mWT.over.mEQ was 3.48. With “IGFBP7_101 (AAGGPGVSGVCVCKSR; listed as Homo sapiens)” the logFC.mWT.over.mEQ was 2.57. “LOX_58 (LSLGSQYQPQR; listed as Homo sapiens)” gave a logFC.mWT.over.mEQ of 1.77. “FN1_36 (MVQPQSPVAVSQSKPGCYDNGKHYQINQQWER; listed as Homo sapiens)” gave a logFC.mWT.over.mEQ of 3.69. For “LOX_126 (QAGYSTSR; listed as Homo sapiens)”, the logFC.mWT.over.mEQ was 3.03. Substance “IGFBP3_32 (AGLGPVVR; listed as Homo sapiens)” has a logFC.mWT.over.mEQ of 5.18. With “HSPG2_275 (LLPGSVR; listed as Homo sapiens)” the logFC.mWT.over.mEQ was 2.10. “LOX_123 (HWFQAGYSTSR; listed as Homo sapiens)” was tested, and the logFC.mWT.over.mEQ was 1.37. For “FN1_1143 (LTPGVEYVYTIQVLR; listed as Homo sapiens)”, the logFC.mWT.over.mEQ was 2.80.
